Where two headings read alike, the source gives them in different places.
Legend:
[1] = tested on: urinary Kim-1 excretion; conditions: cited from earlier work; for urinary Kim-1: 237 μmol/kg twice daily
[2] = administered twice daily; cited from earlier work
[3] = Octanol-water partition, shake flask (log Papp); type: physicochemical; conditions: pH 7.4, Tris buffer
Description: The partition values between octanol and water (at pH 7.4, Tris buffer) were determined using a “shake flask” direct method of measuring log Papp values (Sangster et al., Octanol-Water Partition Coefficients: Fundamentals and Physical Chemistry; John Wiley and Sons: West Sussex, England, 1997; Vol. 2). The fraction of compound in the octanol is then expressed as log Papp. […] This is likely due to the presence of the aromatic nitrogen, a moderately good hydrogen bond accepter, on the DFT analogs.

[4] = Compound-plasma binding, rodent plasma; type: in vitro ADME; conditions: 37° C., 4 h, 3,000 MWCO filter
Source text: (§1) Each sample was then passed through a Millipore Amicon Ultra regenerated cellulose filter (3,000 MWCO).

[5] = tested on: urinary Kim-1 excretion
Description: The compounds were administered to the rats po as their monosodium salts, prepared as described above, twice daily at a dose of 237 μmol/kg/dose (474 μmol/kg/d) for up to 7 d. The studies were performed on rats with normal iron stores. The rats were fasted overnight and were given the first dose of the compound first thing in the morning. The rats were fed ˜3 h post-dose and had access to food for ˜5 h before being fasted overnight.
The rats were housed in individual metabolic cages. […] A baseline (day 0) urine sample was collected and assessed for its Kim-1 content; each animal served as its own control. The urine was collected chilled as previously described (Bergeron et al., “Desferrithiocin Analog Iron Chelators: Iron Clearing Efficiency, Tissue Distribution, and Renal Toxicity.” Biometals, 2011, 24, 239-258).
The chilled urine was collected, vortexed, and warmed to room temperature; any sediment in the samples was allowed to settle. Kim-1 content was assessed using a Rat Kim-1 Rapid Test Kit according to the manufacturer's instructions. The result was read using a ReaScan Test Reader. […] Data are presented as the mean±the standard error of the mean; p-values were generated via a one-tailed Student's t-test in which the inequality of variances was assumed; and a p-value of <0.05 was considered significant.
Assessment of chelator-induced impaired renal function has traditionally relied on the detection of a rise in blood urea nitrogen (BUN) and/or serum creatinine (SCr). However, because of the functional reserve of the kidney, these parameters are often unreliable indicators of acute kidney injury; the ultimate answer requires histopathology. […] BioAssay Works has recently developed RenaStick, a direct lateral flow immunochromato-graphic assay, which allows for the rapid detection (less than 30 minutes) and quantitation of urinary Kim-1 (rat) or KIM-1 (human) excretion (Vaidya et al., “A Rapid Urine Test for Early Detection of Kidney Injury.” Kidney. Int. 2009, 76, 108-114). […] The studies were performed on rats with normal iron stores; each animal served as their own control.

[6] = Job's plot stoichiometry of Fe(III) complexes; type: binding; conditions: [DFT analog]+[Fe(III)]=1.0 mM, Tris-HCl pH 7.4; theoretical 0.667 for 2:1
Description: Solutions containing DFT analog/Fe(III) at different ratios were prepared such that [DFT analog]+[Fe(III)]=1.0 mM in Tris-HCl buffer at pH 7.4. The theoretical mole fraction maximum for a 2:1 DFT analog:Fe complex is 0.667 (indicated by an arrow).
In each instance, the DFT analogs formed 2:1 complexes with Fe(III). […] A 100 mM Tris HCl buffer was used to maintain the pH at 7.4. Solutions containing different DFT analog/Fe(III) ratios were prepared by mixing appropriate volumes of 1.0 mM DFT analog solution and 1.0 mM Fe(III)-nitriloacetate (NTA) in Tris-HCl buffer. The 1.0 mM Fe(III)-NTA solution was prepared immediately prior to use by dilution of a 41.6 mM Fe(III)-NTA stock solution with the Tris HCl buffer, whereas the DFT analog stock solution was prepared by dissolving the DFT analog as its monosodium salt in Tris HCl buffer at pH 7.4. The Fe(III)-NTA stock solution was prepared by mixing equal volumes of […] of FeCl3 and 180 mM trisodium NTA. The iron content of the Fe(III)-NTA solution was verified by atomic absorption spectrophotometry (AAS).

[7] = Compound-plasma binding, primate plasma; type: in vitro ADME; conditions: 37° C., 4 h, 3,000 MWCO filter
Source text: as §1

[8] = day 8, after 237 μmol/kg twice daily × 7 d
[9] = po twice daily 237 μmol/kg/dose × 7 d

Structure (SMILES) | urinary Kim-1 ([1]; after three days) [ng/kg/24 h] | BUN [1, 8] [mg/dL] | SCr [1, 8] [mg/dL] | urinary Kim-1 ([1]; end of the 7 d dosing period) [ng/kg/24 h] | renal toxicity (Kim-1, BUN, SCr), summary ([1]; rats) | nephrotoxicity in patients [2] | LogPapp [3] | binding of the compound to plasma [4] | survival of dosing period ([5]; po twice daily 237 μmol/kg/dose (474 μmol/kg/d), up to 7 d, rats with normal iron stores) | BUN and SCr [5, 9] | urinary Kim-1 excretion versus baseline (day 0) [5, 9] | renal toxicity (Kim-1, BUN, SCr), summary ([5]; rat, in vivo) | observed mole fraction maximum in Job's plot [6] | binding of the compound to plasma [7]
C[C@]1(C(=O)O)CSC(c2ccc(O)cc2O)=N1 [compound 3] | 69±47 | 32 ± 13 | 1.3 ± 1.0 | 189±187 | some nephrotoxicity | induced proximal tubule nephrotoxicity | −1.05 | – | – | – | – | – | – | –
COCCOCCOc1ccnc(C2=N[C@@](C)(C(=O)O)CS2)c1O [I-3, (S)-4,5-Dihydro-2-[3-hydroxy-4-(3,6-dioxaheptyloxy)-2-pyridinyl]-4-methyl-4-thiazolecarboxylic Acid] | – | – | – | – | – | – | −1.38 | little, if any, binding | All of the animals survived the compound dosing regimen | well within the normal range | remained within error of that of the baseline (day 0) levels | little to no impact on renal function | 0.677 | little, if any, binding

Reference: patent US10010535B2, “Desferrithiocin analogs and uses thereof” (University of Florida Research Foundation, Incorporated, priority 2013, dated 2018)
